Measured values published in patent US10040815B2, “3-substituted 5-amino-6H-thiazolo[4,5-d]pyrimidine-2,7-dione compounds for the treatment and prophylaxis of virus infection” (Hoffmann-La Roche Inc., priority 2014, dated 2018).
Like-named read-outs stand apart in the source and are kept apart here.

Molecular target: human TLR7 (Homo sapiens (Human), UniProt Q9NYK1)
Assay: HEK293-Blue-hTLR-7 cells assay (SEAP reporter, NF-κB activation)
Assay type: cell-based
Excerpt: HEK293-Blue-hTLR-7 Cells Assay: A stable HEK293-Blue-hTLR-7 cell line was purchased from InvivoGen (Cat.#: hkb-htlr7, San Diego, Calif., USA). These cells were designed for studying the stimulation of human TLR7 by monitoring the activation of NF-κB. A SEAP (secreted embryonic alkaline phosphatase) reporter gene was placed under the control of the IFN-β[…] minimal promoter fused to five NF-κB and AP-1-binding sites. The SEAP was induced by activating NF-κB and AP-1 via stimulating HEK-Blue hTLR7 cells with TLR7 ligands. Therefore the reporter expression was regulated by the NF-κB promoter upon stimulation of human TLR7 for 20 hours. The cell culture supernatant SEAP reporter activity was determined using QUANTI-Blue™ kit (Cat.#: rep-qb1, Invivogen, San Diego, Calif., USA) at a wavelength of 640 nm, a detection medium that turns purple or blue in the presence of alkaline phosphatase. […] Then 20 μL of the supernatant from each well was incubated with 180 μL Quanti-blue substrate solution at 37° C. for 2 hours and the absorbance was read at 620˜655 nm using a spectrophotometer. […] Hiroaki Hemmi et al, Nature Immunology 3, 196-200 (2002).

[1] = HEK293-Blue-hTLR-7 cells, 20 hours incubation, SEAP reporter, read-out: HEK293- hTLR-7 EC50

human TLR7, sequence (Q9NYK1 27-1049): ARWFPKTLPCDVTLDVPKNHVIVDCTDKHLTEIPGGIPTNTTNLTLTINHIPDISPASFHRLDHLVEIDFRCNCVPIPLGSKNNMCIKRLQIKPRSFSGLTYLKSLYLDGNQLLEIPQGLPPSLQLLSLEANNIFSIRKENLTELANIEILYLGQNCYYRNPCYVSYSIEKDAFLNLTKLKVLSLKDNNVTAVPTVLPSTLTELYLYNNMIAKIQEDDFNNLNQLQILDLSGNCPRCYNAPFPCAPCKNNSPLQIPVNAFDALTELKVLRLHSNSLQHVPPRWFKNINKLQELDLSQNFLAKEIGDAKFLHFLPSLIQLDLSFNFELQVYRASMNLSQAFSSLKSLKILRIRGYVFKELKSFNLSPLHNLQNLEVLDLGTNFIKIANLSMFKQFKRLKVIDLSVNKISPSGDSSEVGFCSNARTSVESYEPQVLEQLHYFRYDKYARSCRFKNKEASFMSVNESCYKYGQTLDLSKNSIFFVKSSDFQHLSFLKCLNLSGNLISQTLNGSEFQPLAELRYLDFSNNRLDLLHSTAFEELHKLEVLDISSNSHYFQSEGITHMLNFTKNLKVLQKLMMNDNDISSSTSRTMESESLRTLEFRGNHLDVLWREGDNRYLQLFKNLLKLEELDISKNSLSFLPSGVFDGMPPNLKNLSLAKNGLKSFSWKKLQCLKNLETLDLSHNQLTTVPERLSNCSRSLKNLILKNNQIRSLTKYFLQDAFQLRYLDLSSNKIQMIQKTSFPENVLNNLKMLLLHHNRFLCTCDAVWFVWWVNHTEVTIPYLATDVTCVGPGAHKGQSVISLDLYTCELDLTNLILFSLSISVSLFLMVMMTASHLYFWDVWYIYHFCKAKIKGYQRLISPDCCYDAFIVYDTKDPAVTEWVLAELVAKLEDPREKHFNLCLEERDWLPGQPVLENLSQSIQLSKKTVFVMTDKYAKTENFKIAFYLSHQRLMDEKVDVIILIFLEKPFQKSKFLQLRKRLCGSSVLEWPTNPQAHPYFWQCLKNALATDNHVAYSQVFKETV

C#CC(O)[C@@H]1C[C@@H](O)[C@H](n2c(=O)sc3c(=O)[nH]c(N)nc32)O1 (single isomer, unassigned) [Example 18-A]
EC50 [1]: 12 µM

C[C@H](O)[C@@H]1C[C@@H](C)[C@H](n2c(=O)sc3c(=O)[nH]c(N)nc32)O1 [Example 31, 5-Amino-3-[(2R,3R,5S)-5-[(1S)-1-hydroxyethyl]-3-methyl-tetrahydrofuran-2-yl]-6H-thiazolo[4,5-d]pyrimidine-2,7-dione]
EC50 [1]: 70 µM

CC#CC(O)[C@@H]1C[C@@H](O)[C@H](n2c(=O)sc3c(=O)[nH]c(N)nc32)O1 (single isomer, unassigned) [Example 19-A]
EC50 [1]: 38 µM

CS[C@@H]1C[C@@H](CO)O[C@H]1n1c(=O)sc2c(=O)[nH]c(N)nc21 [Example 39, 5-Amino-3-[(2R,3R,5S)-5-(hydroxymethyl)-3-methylsulfanyl-tetrahydrofuran-2-yl]-6H-thiazolo[4,5-d]pyrimidine-2,7-dione]
EC50 [1]: 62 µM

C=CCC(O)[C@@H]1C[C@@H](O)[C@H](n2c(=O)sc3c(=O)[nH]c(N)nc32)O1 (single isomer, unassigned) [Example 8-A]
EC50 [1]: 87 µM

Nc1nc2c(sc(=O)n2[C@@H]2O[C@H](CO)C[C@H]2N2CCCC2)c(=O)[nH]1 [Example 32, 5-Amino-3-[(2R,3R,5S)-5-(hydroxymethyl)-3-pyrrolidin-1-yl-tetrahydrofuran-2-yl]-6H-thiazolo[4,5-d]pyrimidine-2,7-dione]
EC50 [1]: 67 µM

CCC(O)[C@@H]1C[C@@H](SC)[C@H](n2c(=O)sc3c(=O)[nH]c(N)nc32)O1 (single isomer, unassigned) [Example 22-A]
EC50 [1]: 14 µM

CC[C@H](OC(=O)C(C)C)[C@@H]1C[C@@H](O)[C@H](n2c(=O)sc3c(=O)[nH]c(N)nc32)O1 [Example 42, [(1S)-1-[(2S,4R,5R)-5-(5-Amino-2,7-dioxo-6H-thiazolo[4,5-d]pyrimidin-3-yl)-4-hydroxy-tetrahydrofuran-2-yl]propyl] 2-methylpropanoate]
EC50 [1]: 51 µM

CCC[C@@H]1C[C@@H]([C@@H](O)CC)O[C@H]1n1c(=O)sc2c(=O)[nH]c(N)nc21 [Example 27-A, 5-amino-3-[(2R,3R,5S)-5-[(1S)-1-hydroxypropyl]-3-propyl-tetrahydrofuran-2-yl]-6H-thiazolo[4,5-d]pyrimidine-2,7-dione]
EC50 [1]: 15 µM

C=CC[C@@H]1C[C@@H](C(O)CC)O[C@H]1n1c(=O)sc2c(=O)[nH]c(N)nc21 (stereo partly drawn) [Example 26, 3-[(2R,3R,5S)-3-allyl-5-(1-hydroxypropyl)tetrahydrofuran-2-yl]-5-amino-6H-thiazolo[4,5-d]pyrimidine-2,7-dione]
EC50 [1]: 29 µM

C=CC[C@@H]1C[C@@H](C(O)CC)O[C@H]1n1c(=O)sc2c(=O)[nH]c(N)nc21 (single isomer, unassigned) [Example 26-A]
EC50 [1]: 12 µM

CCCC(O)[C@@H]1C[C@@H](O)[C@H](n2c(=O)sc3c(=O)[nH]c(N)nc32)O1 (single isomer, unassigned) [Example 10-A]
EC50 [1]: 63 µM

CCC(O)[C@@H]1C[C@@H](N=[N+]=[N-])[C@H](n2c(=O)sc3c(=O)[nH]c(N)nc32)O1 (single isomer, unassigned) [Example 23-A]
EC50 [1]: 26 µM

CC[C@H](O)[C@@H]1C[C@@H](C)[C@H](n2c(=O)sc3c(=O)[nH]c(N)nc32)O1 [Example 28, 5-amino-3-[(2R,3R,5S)-5-[(1S)-1-hydroxypropyl]-3-methyl-tetrahydrofuran-2-yl]-6H-thiazolo[4,5-d]pyrimidine-2,7-dione]
EC50: 10 µM

C[C@@H]1C[C@@H]([C@@H](O)C2CC2)O[C@H]1n1c(=O)sc2c(=O)[nH]c(N)nc21 [Example 30, 5-Amino-3-[(2R,3R,5S)-5-[(S)-cyclopropyl(hydroxy)methyl]-3-methyl-tetrahydrofuran-2-yl]-6H-thiazolo[4,5-d]pyrimidine-2,7-dione]
EC50 [1]: 15 µM

C=CC(O)[C@@H]1C[C@@H](O)[C@H](n2c(=O)sc3c(=O)[nH]c(N)nc32)O1 (single isomer, unassigned) [Example 24-A]
EC50 [1]: 70 µM
